Where only a bound is given, the exact number is not on record here.

In general, IC50 refers to the concentration at which inhibition is half-maximal.

Test [1] addresses T1, LXRβ (Homo sapiens, UniProt P55055).
T1 construct: CMX-GAL4N-hLXRβ-LBD; expressed in transfected cells; host or cells: HEK293
T1 sequence (P55055 222-460 limits assumed): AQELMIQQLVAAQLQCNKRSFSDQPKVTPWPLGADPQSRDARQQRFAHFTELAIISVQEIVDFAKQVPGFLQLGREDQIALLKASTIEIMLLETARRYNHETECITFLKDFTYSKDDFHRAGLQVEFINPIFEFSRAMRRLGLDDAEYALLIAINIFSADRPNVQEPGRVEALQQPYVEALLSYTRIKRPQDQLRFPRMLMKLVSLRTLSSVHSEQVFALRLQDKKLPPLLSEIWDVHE
In words: LXRβ reporter gene assay in HEK293. Format: cell-based. The settings on record: read-out: LXRβ antagonistic activity (IC50). In general terms: In a reporter assay the amount or activity of a reporter protein is the signal.

Test [2] has as its target T2, GR (Homo sapiens, UniProt P04150).
T2 construct: expressed in transfected cells; host or cells: HEK293
T2 sequence (P04150 1-777): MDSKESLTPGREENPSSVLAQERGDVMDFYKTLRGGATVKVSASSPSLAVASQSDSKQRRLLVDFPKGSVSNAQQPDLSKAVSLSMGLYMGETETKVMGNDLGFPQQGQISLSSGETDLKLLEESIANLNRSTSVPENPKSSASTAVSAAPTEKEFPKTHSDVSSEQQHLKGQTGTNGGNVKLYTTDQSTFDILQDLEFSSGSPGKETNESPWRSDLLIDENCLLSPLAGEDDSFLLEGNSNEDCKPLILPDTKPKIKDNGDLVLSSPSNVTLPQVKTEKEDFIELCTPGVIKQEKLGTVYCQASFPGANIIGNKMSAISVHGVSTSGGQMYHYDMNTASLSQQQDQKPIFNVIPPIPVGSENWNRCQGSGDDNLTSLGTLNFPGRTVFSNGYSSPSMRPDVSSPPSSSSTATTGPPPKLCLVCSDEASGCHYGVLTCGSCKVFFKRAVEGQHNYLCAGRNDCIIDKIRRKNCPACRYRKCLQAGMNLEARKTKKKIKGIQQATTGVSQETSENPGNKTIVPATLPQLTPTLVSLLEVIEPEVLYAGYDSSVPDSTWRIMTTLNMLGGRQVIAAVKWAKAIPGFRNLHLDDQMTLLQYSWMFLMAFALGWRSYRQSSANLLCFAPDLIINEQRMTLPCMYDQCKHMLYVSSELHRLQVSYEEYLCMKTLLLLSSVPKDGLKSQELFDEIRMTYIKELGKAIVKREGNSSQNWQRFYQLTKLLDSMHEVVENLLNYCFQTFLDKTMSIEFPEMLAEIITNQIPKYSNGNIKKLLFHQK
In words: GR reporter gene assay in HEK293. Type of test: cell-based. Particulars: for IC50: reporter gene assay, HEK293, agonist dexamethasone 1 nM, read-out: GR antagonistic activity (IC50).

Test [3] has as its target T3, PR (Homo sapiens, UniProt P06401).
T3 sequence (P06401 1-933): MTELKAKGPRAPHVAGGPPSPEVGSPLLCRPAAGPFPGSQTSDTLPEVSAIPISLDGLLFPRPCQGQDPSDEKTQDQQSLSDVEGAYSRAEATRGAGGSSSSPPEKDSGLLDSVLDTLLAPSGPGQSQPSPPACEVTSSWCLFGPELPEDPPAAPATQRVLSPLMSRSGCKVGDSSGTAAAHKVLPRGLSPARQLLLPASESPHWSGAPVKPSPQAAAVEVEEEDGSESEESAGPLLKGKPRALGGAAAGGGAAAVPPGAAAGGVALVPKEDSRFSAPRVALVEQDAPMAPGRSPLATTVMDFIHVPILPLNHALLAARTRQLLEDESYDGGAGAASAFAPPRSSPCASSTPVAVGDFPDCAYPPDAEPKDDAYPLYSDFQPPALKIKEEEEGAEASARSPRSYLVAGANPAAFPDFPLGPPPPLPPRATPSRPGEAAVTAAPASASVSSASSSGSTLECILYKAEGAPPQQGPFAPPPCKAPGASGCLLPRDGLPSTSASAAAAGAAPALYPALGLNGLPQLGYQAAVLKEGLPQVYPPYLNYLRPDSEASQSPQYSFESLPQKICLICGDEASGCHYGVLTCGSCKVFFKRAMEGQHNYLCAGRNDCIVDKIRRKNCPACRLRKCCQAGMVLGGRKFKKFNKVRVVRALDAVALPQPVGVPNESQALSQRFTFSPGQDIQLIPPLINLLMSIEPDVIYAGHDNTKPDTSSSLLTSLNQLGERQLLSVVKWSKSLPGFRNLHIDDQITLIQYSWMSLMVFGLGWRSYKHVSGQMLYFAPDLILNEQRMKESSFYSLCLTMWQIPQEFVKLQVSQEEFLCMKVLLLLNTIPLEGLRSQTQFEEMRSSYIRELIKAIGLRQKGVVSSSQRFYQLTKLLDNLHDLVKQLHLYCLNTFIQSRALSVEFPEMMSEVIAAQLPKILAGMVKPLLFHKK
The settings on record: cited from earlier work; for IC50: alkaline phosphatase, T47D cells, progesterone 1 nM, read-out: PR antagonistic activity (IC50).

The target in test [4] is T3, PR. Description: T-47D alkaline phosphatase assay (PR antagonism). Type of test: cell-based.
The subject of test [5] is LNCaP cells (T877A mutation in the AR LBD). Description: PSA level (ELISA) in LNCaP cell line. Format: cell-based, human. The settings on record: Homo sapiens, LNCaP, dihydrotestosterone 10 nM, 48 h, ± SEM. An excerpt:
Chronic administration of AR antagonists often leads to the development of resistance. […] In contrast, another AR antagonist, enzalutamide, was reported to antagonize AR mutant T877A [23]. Thus, development of a novel chemical class of AR antagonists, different from flutamide analogs seems an attractive approach for the treatment of AR antagonist-resistant cancer, providing further motivation to evaluate steroid surrogates. Therefore, we investigated the antiandrogenic activity of several potent AR antagonists by means of PSA (prostate-specific antigen, an AR-regulated gene) ELISA (enzyme-linked immunosorbent assay) in human prostate cancer cell line LNCaP, which has T877A mutation in the AR LBD.
The human prostate cancer cell line LNCaP (ECACC, London, UK) was routinely maintained in RPMI1640 containing 10% (v/v) fetal bovine serum, and penicillin/streptomycin at 37 °C in a humidified atmosphere of 5% CO2 in air. Cells were cultured in RPMI1640 without phenol red containing 10% (v/v) charcoal-stripped fetal bovine serum, and penicillin/streptomycin at 37 °C in a humidified atmosphere of 5% CO2 in air for 3 days. Then cells were plated in 96-well plates at 1 × 10^4 cells/well and incubated overnight. On the next day, cells were treated with fresh media containing test compound plus dihydrotestosterone (final concentration 10 nM), and incubated for 48 h. Then, PSA levels were measured in the culture supernatants, after 100-fold dilution with the medium, using ELISA (Immunospec Corp., CA, USA Free prostate-specific antigen cat. #E29-212) according to the manufacturer’s instructions. All data points were carried out twice in triplicate.
Background: In an ELISA, binding on a coated surface is turned into a signal by an enzyme label.

Consider `CCCCn1c(=O)c2ccccc2c2ccccc21` [Compound 7], for which the concentration for half-maximal inhibition (IC50) in test [1] is 15 µM; in test [2], greater than 20 µM.

As for `CCCCn1c(=O)c2ccccc2c2cc(C(C)(C)C)ccc21` [Compound 10], the IC50 in test [1] and in test [2] was greater than 20 µM throughout.

Take `CCCCn1c(=O)c2ccccc2c2cc(CO)ccc21` [Compound 11]: the IC50 in test [1] and in test [2] was greater than 20 µM throughout.

With `CCn1c(=O)c2ccccc2c2cc(C(O)(C(F)(F)F)C(F)(F)F)ccc21` [Compound 14], the IC50 in test [1] is 6.6 µM; in test [2] it was greater than 20 µM.

For `CCCCCCCCCn1c(=O)c2ccccc2c2cc(C(O)(C(F)(F)F)C(F)(F)F)ccc21` [Compound 17], the IC50 in test [1] and in test [2] was greater than 20 µM in each case.

As for `CCCCn1c(=O)c2ccccc2c2c(OC)c(C(O)(C(F)(F)F)C(F)(F)F)ccc21` [Compound 18], the 50% inhibitory concentration (IC50) in test [1] and in test [2] was greater than 20 µM throughout.

`CCCCn1c(=O)c2ccccc2c2cc(C(O)(C(F)(F)F)C(F)(F)F)c(OC)cc21` [Compound 19]: the IC50 in test [1] was 9.2 µM. Further, in test [2], the “improved GR activity compared with 12” value is listed as 5.7 fold and the IC50 came out at 1.3 µM. In test [3], the “enhanced PR activity compared with unsubstituted analog 12” value was “more than 3 fold”.

In the case of `CCCCn1c(=O)c2ccccc2c2cc(C(O)(C(F)(F)F)C(F)(F)F)cc(OC)c21` [Compound 20], the results for the IC50 in test [1] and in test [2] were 5.5 µM and 3.9 µM, respectively. Also, the “enhanced PR activity compared with unsubstituted analog 12” value in test [3] was greater than 2 fold.

As for `CCCCn1c(=O)c2c(OC)cccc2c2cc(C(O)(C(F)(F)F)C(F)(F)F)ccc21` [Compound 21], the IC50 was determined as 12 µM in test [1] and 14 µM in test [2].

Turning to `CCCCn1c(=O)c2cc(OC)ccc2c2cc(C(O)(C(F)(F)F)C(F)(F)F)ccc21` [Compound 22], the IC50 in test [1] is 11 µM; in test [2], 8.2 µM.

With `CCCCn1c(=O)c2ccc(OC)cc2c2cc(C(O)(C(F)(F)F)C(F)(F)F)ccc21` [Compound 23], the values for the IC50 in test [1] and in test [2] were 2.4 µM and 10 µM, respectively. Also, in test [4], the “weaker PR activity than 12” value stood at 5 fold.

As to `CCCCn1c(=O)c2cccc(OC)c2c2cc(C(O)(C(F)(F)F)C(F)(F)F)ccc21` [Compound 24], the IC50 in test [1] is 4.3 µM; in test [2], greater than 20 µM.

In the case of `CCCCn1c(=O)c2ccccc2c2cc(C(O)(C(F)(F)F)C(F)(F)F)c(OC)c(OC)c21` [Compound 25], the IC50 is 9.6 µM in test [1], greater than 20 µM in test [2] and 0.51 µM in test [3].

On to `CCCCn1c(=O)c2ccccc2c2cc(C(O)(C(F)(F)F)C(F)(F)F)c3c(c21)OCO3` [Compound 26], for which the IC50 in test [1] was greater than 20 µM; in test [2], 0.76 µM; in test [5] it was 0.56 ± 0.26 µM; in test [3], 0.23 µM.

`CCCCn1c(=O)c2cc(OC)ccc2c2cc(C(O)(C(F)(F)F)C(F)(F)F)c(OC)cc21` [Compound 27]: the IC50 in test [1] is 18 µM; in test [2] it was 1.7 µM; in test [3], 0.3 µM.

As to `CCCCn1c(=O)c2cc(OC)ccc2c2cc(C(O)(C(F)(F)F)C(F)(F)F)cc(OC)c21` [Compound 28], the IC50 in test [1] was greater than 10 µM; in test [2] it was 5.2 µM; in test [3], 0.34 µM.

`CCCCn1c(=O)c2c(OC)c(OC)ccc2c2cc(C(O)(C(F)(F)F)C(F)(F)F)ccc21` [Compound 29]: the IC50 in test [1] was 3.2 µM; in test [2] it was 7.9 µM; in test [3], 4.2 µM.

In the case of `CCCCn1c(=O)c2c(OC)cc(OC)cc2c2cc(C(O)(C(F)(F)F)C(F)(F)F)ccc21` [Compound 30], the IC50 in test [1], in test [2] and in test [3] was greater than 20 µM throughout.

In the case of `CCCCn1c(=O)c2cc(OC)c(OC)cc2c2cc(C(O)(C(F)(F)F)C(F)(F)F)ccc21` [Compound 31], the results for the IC50 in test [1], in test [2] and in test [3] were 8.9 µM, 17 µM and 9.6 µM, respectively.

Turning to `O=c1[nH]c2c(F)cc(C(O)(C(F)(F)F)C(F)(F)F)cc2c2ccccc12` [Compound 32], the values for the IC50 in test [1], in test [2] and in test [5] were 4.6 µM, 6.9 µM and 0.49 ± 0.26 µM, respectively.

Turning to `O=c1[nH]c2ccc(C(O)(C(F)(F)F)C(F)(F)F)cc2c2cccc(F)c12` [Compound 33], the values for the IC50 in test [1], in test [2] and in test [5] were 3.1 µM, 9.8 µM and 0.19 ± 0.095 µM, respectively.

Regarding `O=c1[nH]c2ccc(C(O)(C(F)(F)F)C(F)(F)F)cc2c2ccc(F)cc12` [Compound 34], the half-inhibitory concentration (IC50) is 6 µM in test [1], greater than 20 µM in test [2] and greater than 10 µM in test [5].

For `O=c1[nH]c2ccc(C(O)(C(F)(F)F)C(F)(F)F)cc2c2cc(F)ccc12` [Compound 35], the IC50 was 5.4 µM in test [1], 7 µM in test [2] and 0.55 ± 0.11 µM in test [5].

As to `COc1cc(C(O)(C(F)(F)F)C(F)(F)F)cc2c1[nH]c(=O)c1ccccc12` [Compound 39], the IC50 in test [1] and in test [2] was greater than 20 µM in each case.

In the case of `CCc1cc(C(O)(C(F)(F)F)C(F)(F)F)cc2c1[nH]c(=O)c1ccccc12` [Compound 41], the IC50 in test [1] and in test [2] was greater than 20 µM each time.

Regarding `CCCc1cc(C(O)(C(F)(F)F)C(F)(F)F)cc2c1[nH]c(=O)c1ccccc12` [Compound 42], the IC50 in test [1] amounted to 20 µM; in test [2] it was 16 µM.

The values above are taken from article PMC6073568, “Efficient Lead Finding, Activity Enhancement and Preliminary Selectivity Control of Nuclear Receptor Ligands Bearing a Phenanthridinone Skeleton” (International Journal of Molecular Sciences, 2018).
